This passage reports inhibition results from patent publication US20250145601A1, “NOVEL BICYCLIC COMPOUNDS AS RAD51 INHIBITORS” (SATYA THERAPEUTICS, INC., priority 2022, published 2025).

Each structure is given as a SMILES string.

The test system of the experiment is MDA MB 231 cells. The experiment can be described thus: Antiproliferation assay in MDA MB 231 cells (Cell Titer Glo). It is filed as cell-based. Conditions: Homo sapiens, MDA-MB-231, 216 h, MDAMB231 cell line, 9 day treatment, racemic compounds (Table 2). On the procedure:
Antiproliferation Assay in MDA MB 231 Cells MDA MB 231 cells were seeded in 96 well plate at a seeding density of 250 cells/well. The cells were allowed to settle overnight under standard incubator conditions (37° C., 5% CO2). Next day treatment with increasing dose of test compounds and reference compounds were done to the respective wells and the cells were further incubated under standard cell culture conditions for another 4 days. On the 5th day, media was replenished with fresh treatment and cells were incubated for a total of 9 day treatment period. On the day of termination, appropriate volume of Cell Titer Glo reagent was added to the treatment (and control) wells and the plates were kept on a plate shaker @300 RPM for 15 min. Luminiscence reading (RLU) was […] RLU is directly proportional to ATP content and is directly related to number of metabolically active cells in the respective well. Calculation: a. Blank Correction: RLU of the Wells Containing No Cells is Considered as Blank and Subtracted from all RLU of the Treated and Control Wells [formula]
For orientation: ATP-based viability assays read luminescence as a measure of living cells.
Usually inhibition stands for the share of the control response that was lost under treatment. Low readings indicate a response near the control, high ones a response far below the control. Take `CCC(=O)N1N=C(c2c(C)c3ccccc3[nH]c2=O)CC1c1cn(C)c2ccccc12` (stereo not shown) [Example 12, 4-Methyl-3-(5-(1-methyl-1H-indol-3-yl)-1-propionyl-4,5-dihydro-1H-pyrazol-3-yl)quinolin-2(1H)-one]: the inhibition at 10 µM was at least 50%.

`CCC(=O)N1N=C(c2c(C)c3cccnc3[nH]c2=O)CC1c1ccc(OC)cc1` (stereo not shown) [Example 13, 3-(5-(4-Methoxyphenyl)-1-propionyl-4,5-dihydro-1H-pyrazol-3-yl)-4-methyl-1,8-naphthyridin-2(1H)-one]: the inhibition at 10 µM was at least 50%. To `CCC(=O)N1N=C(c2c(C)c3cncnc3[nH]c2=O)CC1c1ccc(OC)cc1` (stereo not shown) [Example 14, 6-(5-(4-Methoxyphenyl)-1-propionyl-4,5-dihydro-1H-pyrazol-3-yl)-5-methylpyrido-[2,3-d]pyrimidin-7(8H)-one] belongs under 50%; to `CCC(=O)N1N=C(c2c(C)c3cc(Br)ccc3[nH]c2=O)CC1c1ccc(OC)cc1` (stereo not shown) [Example 15, 6-bromo-3-(5-(4-methoxyphenyl)-1-propionyl-4,5-dihydro-1H-pyrazol-3-yl)-4-methylquinolin-2(1H)-one], at least 50%. `CCC(=O)N1N=C(c2c(C)c3nc(Cl)ccc3[nH]c2=O)CC1c1ccc(OC)cc1` (stereo not shown) [Example 16, 6-chloro-3-(5-(4-methoxyphenyl)-1-propionyl-4,5-dihydro-1H-pyrazol-3-yl)-4-methyl-1,5-naphthyridin-2(1H)-one]: the inhibition at 10 µM was at least 50%.

`CCC(=O)N1N=C(c2cc3cc(Cl)ccc3[nH]c2=O)CC1c1ccc(OC)cc1` (stereo not shown) [Example 17, 6-Chloro-3-(5-(4-methoxyphenyl)-1-propionyl-4,5-dihydro-1H-pyrazol-3-yl)quinolin-2(1H)-one] returned an inhibition at 10 µM of at least 50%. To `CCC(=O)N1N=C(c2c(C)c3cc(Cl)ccc3n(C)c2=O)CC1c1ccc(OC)cc1` (stereo not shown) [Example 18, 6-chloro-3-(5-(4-methoxyphenyl)-1-propionyl-4,5-dihydro-1H-pyrazol-3-yl)-1,4-dimethylquinolin-2(1H)-one] belongs under 50%. The compound `CCC(=O)N1N=C(c2c(=O)[nH]cc3ccccc23)CC1c1ccc(OC)cc1` (stereo not shown) [Example 19, 4-(5-(4-methoxyphenyl)-1-propionyl-4,5-dihydro-1H-pyrazol-3-yl)isoquinolin-3(2H)-one] displayed an inhibition at 10 µM of under 50%. In the case of `CCC(=O)N1N=C(c2c(C)c3ccsc3[nH]c2=O)CC1c1ccc(OC)nc1` (stereo not shown) [Example 21, 5-(5-(6-methoxypyridin-3-yl)-1-propionyl-4,5-dihydro-1H-pyrazol-3-yl)-4-methylthieno[2,3-b]pyridin-6(7H)-one], the inhibition at 10 µM was at least 50%. To `CCC(=O)N1N=C(c2cc3ccsc3[nH]c2=O)CC1c1ccc(OC)cc1` (stereo not shown) [Example 22, 5-(5-(4-methoxyphenyl)-1-propionyl-4,5-dihydro-1H-pyrazol-3-yl)thieno[2,3-b]pyridin-6(7H)-one] belongs at least 50%; to `CCC(=O)N1N=C(c2c(C3CC3)c3cc(Cl)ccc3[nH]c2=O)CC1c1ccc(OC)cc1` (stereo not shown) [Example 23, 6-chloro-4-cyclopropyl-3-(5-(4-methoxyphenyl)-1-propionyl-4,5-dihydro-1H-pyrazol-3-yl)quinolin-2(1H)-one], at least 50%.

The compound `CCC(=O)N1N=C(c2c(C)c3cc(Cl)ccc3[nH]c2=O)CC1c1cn(C)c2ccccc12` (stereo not shown) [Example 24, 6-chloro-4-methyl-3-(5-(1-methyl-1H-indol-3-yl)-1-propionyl-4,5-dihydro-1H-pyrazol-3-yl)quinolin-2(1H)-one] registered an inhibition at 10 µM of at least 50%. Regarding `CCC(=O)N1N=C(c2c(C)c3ccsc3[nH]c2=O)CC1c1ccc(OC)cn1` (stereo not shown) [Example 25, 5-(5-(5-methoxypyridin-2-yl)-1-propionyl-4,5-dihydro-1H-pyrazol-3-yl)-4-methylthieno[2,3-b]pyridin-6(7H)-one], the inhibition at 10 µM was under 50%. As to `CCC(=O)N1N=C(c2c(C)c3ccsc3[nH]c2=O)CC1c1ccc(=O)[nH]c1` (stereo not shown) [Example 26, 4-methyl-5-(5-(6-oxo-1,6-dihydropyridin-3-yl)-1-propionyl-4,5-dihydro-1H-pyrazol-3-yl)thieno[2,3-b]pyridin-6(7H)-one], the inhibition at 10 µM is under 50%.

`CCC(=O)N1N=C(c2c(C)c3ccsc3[nH]c2=O)CC1c1ccc(OC)s1` (stereo not shown) [Example 29, 5-(5-(5-methoxythiophen-2-yl)-1-propionyl-4,5-dihydro-1H-pyrazol-3-yl)-4-methylthieno[2,3-b]pyridin-6(7H)-one] yielded an inhibition at 10 µM of at least 50%. Then `CCC(=O)N1N=C(c2c(C)c3ccsc3[nH]c2=O)CC1c1cnc(OC)s1` (stereo not shown) [Example 30, 5-(5-(2-methoxythiazol-5-yl)-1-propionyl-4,5-dihydro-1H-pyrazol-3-yl)-4-methylthieno[2,3-b]pyridin-6(7H)-one], with at least 50%.

In turn, `CCC(=O)N1N=C(c2c(C)c3ccsc3[nH]c2=O)CC1c1csc(Br)c1` (stereo not shown) [Example 31, 5-(5-(5-bromothiophen-3-yl)-1-propionyl-4,5-dihydro-1H-pyrazol-3-yl)-4-methylthieno[2,3-b]pyridin-6(7H)-one] displayed an inhibition at 10 µM of under 50%.

On to `CCC(=O)N1N=C(c2c(C)c3ccsc3[nH]c2=O)CC1c1ccccc1` (stereo not shown) [Example 32, 4-methyl-5-(5-phenyl-1-propionyl-4,5-dihydro-1H-pyrazol-3-yl)thieno[2,3-b]pyridin-6(7H)-one], for which the inhibition at 10 µM is under 50%.

As to `CCC(=O)N1N=C(c2c(C)c3ccsc3[nH]c2=O)CC1c1cc(Br)cs1` (stereo not shown) [Example 34, 5-(5-(4-bromothiophen-2-yl)-1-propionyl-4,5-dihydro-1H-pyrazol-3-yl)-4-methylthieno[2,3-b]pyridin-6(7H)-one], the inhibition at 10 µM is under 50%. Regarding `CCC(=O)N1N=C(c2c(C)c3ccsc3[nH]c2=O)CC1c1ccncc1` (stereo not shown) [Example 35, 4-methyl-5-(1-propionyl-5-(pyridin-4-yl)-4,5-dihydro-1H-pyrazol-3-yl)thieno[2,3-b]pyridin-6(7H)-one], the inhibition at 10 µM is under 50%. Compound `CCC(=O)N1N=C(c2c(C)c3ccsc3[nH]c2=O)CC1c1cccnc1` (stereo not shown) [Example 36, 4-methyl-5-(1-propionyl-5-(pyridin-3-yl)-4,5-dihydro-1H-pyrazol-3-yl)thieno[2,3-b]pyridin-6(7H)-one] had an inhibition at 10 µM of under 50%. As for `CCC(=O)N1N=C(c2c(C)c3ccsc3[nH]c2=O)CC1c1ccc(N2CCN(C)CC2)cc1` (stereo not shown) [Example 38, 4-methyl-5-(5-(4-(4-methylpiperazin-1-yl)phenyl)-1-propionyl-4,5-dihydro-1H-pyrazol-3-yl)thieno[2,3-b]pyridin-6(7H)-one], the inhibition at 10 µM is at least 50%.

`CCC(=O)N1N=C(c2c(C)c3ccsc3[nH]c2=O)CC1c1ccc(N(C)C)cc1` (stereo not shown) [Example 39, 5-(5-(4-(dimethylamino)phenyl)-1-propionyl-4,5-dihydro-1H-pyrazol-3-yl)-4-methylthieno[2,3-b]pyridin-6(7H)-one] returned an inhibition at 10 µM of at least 50%.

`CCC(=O)N1N=C(c2c(C)c3c(Cl)csc3[nH]c2=O)CC1c1ccc(OC)cc1` (stereo not shown) [Example 40, 3-chloro-5-(5-(4-methoxyphenyl)-1-propionyl-4,5-dihydro-1H-pyrazol-3-yl)-4-methylthieno[2,3-b]pyridin-6(7H)-one] displayed an inhibition at 10 µM of under 50%. In turn, `CCC(=O)N1N=C(c2c(C)c3ccsc3[nH]c2=O)CC1c1ccc(C)s1` (stereo not shown) [Example 41, 5-(5-(5-methylthiophen-2-yl)-1-propionyl-4,5-dihydro-1H-pyrazol-3-yl)-4-methylthieno[2,3-b]pyridin-6(7H)-one] displayed an inhibition at 10 µM of at least 50%. On to `CCC(=O)N1N=C(c2c(C)c3ccsc3[nH]c2=O)CC1c1ccc(C(F)(F)F)cc1` (stereo not shown) [Example 42, 4-methyl-5-(1-propionyl-5-(4-(trifluoromethyl)phenyl)-4,5-dihydro-1H-pyrazol-3-yl)thieno[2,3-b]pyridin-6(7H)-one], for which the inhibition at 10 µM is at least 50%. Then `CCC(=O)N1N=C(c2c(C)c3ccsc3[nH]c2=O)CC1c1ccc(C(F)F)cc1` (stereo not shown) [Example 43, 5-(5-(4-(difluoromethyl)phenyl)-1-propionyl-4,5-dihydro-1H-pyrazol-3-yl)-4-methylthieno[2,3-b]pyridin-6(7H)-one], with at least 50%; and `CCC(=O)N1N=C(c2c(C)c3ccsc3[nH]c2=O)CC1c1ccc(CC)cc1` (stereo not shown) [Example 44, 5-(5-(4-ethylphenyl)-1-propionyl-4,5-dihydro-1H-pyrazol-3-yl)-4-methylthieno[2,3-b]pyridin-6(7H)-one], with at least 50%. Then `CCC(=O)N1N=C(c2c(C)c3ccsc3[nH]c2=O)CC1c1ccc(N2CCCC2)cc1` (stereo not shown) [Example 46, 4-methyl-5-(1-propionyl-5-(4-(pyrrolidin-1-yl)phenyl)-4,5-dihydro-1H-pyrazol-3-yl)thieno[2,3-b]pyridin-6(7H)-one], with at least 50%; and `CCC(=O)N1N=C(c2c(C)c3ccsc3[nH]c2=O)CC1c1ccc(C2CC2)cc1` (stereo not shown) [Example 47, 5-(5-(4-cyclopropylphenyl)-1-propionyl-4,5-dihydro-1H-pyrazol-3-yl)-4-methylthieno[2,3-b]pyridin-6(7H)-one], with under 50%. As to `CCC(=O)N1N=C(c2c(C)c3ccsc3[nH]c2=O)CC1c1csc(C)n1` (stereo not shown) [Example 48, 4-methyl-5-(5-(2-methylthiazol-4-yl)-1-propionyl-4,5-dihydro-1H-pyrazol-3-yl)thieno[2,3-b]pyridin-6(7H)-one], the inhibition at 10 µM was under 50%.
